Results on 2 compounds are retold here after publication PMC12006963, “Application of Deuterium in an M1 Positive Allosteric Modulator Back-Up Program: The Discovery of VU6045422” (ACS Chemical Neuroscience, 2025).

Molecules are shown by their SMILES. Entries after “also recorded” stand apart in the source; their conditions may differ.

Details of data set [1]: method as in PMID 39660766. To be noted: rat hepatic microsomes; cited from earlier work.
The nature of data set [2]: Rat 14-day exploratory toxicology and toxicokinetic study. It counts as in vivo. To be noted: rat 14-day study, plasma. From the text:
To this end, we prepared a 200 g lot of PAM 5 and performed, in parallel, a dog maximum tolerated dose (MTD) with a pharmacokinetics study and a 14-day rat exploratory toxicology and toxicokinetic study, quantifying plasma Cmax and AUC for both parent 5 and metabolite 6. […] Moreover, while exposure increased with dose, it was nonlinear. […] The series was terminated based on (1) poor and less than dose-proportional increases in systemic exposure, (2) lack of a kinetic isotope effect to diminish production of 6 in dogs and rats, and (3) strong likelihood of even higher concentrations of 6 to be present in man.

A further data set deals with seizure activity. Nature of the data set: Behavioral manifestations of seizure activity (modified Racine score). It counts as in vivo, C57Bl/6 mice. To be noted: 100 mg/kg IP in mice; modified Racine scale 0-5. The method, then: page 9: Brain plasma concentration ratio (Kp) was calculated by dividing brain concentration by plasma concentration for each animal. Unbound brain to unbound plasma concentration ratio (Kp,uu) is calculated using the following formula: Kp,uu = (Brain ng/g x brain fu)/(plasma ng/ml x plasma fu). Pharmacokinetic profiles in rats following oral single escalating doses Single escalating oral dosing in Sprague-Dawley rats was performed at Frontage Laboratories according to their non-GLP Standard Operating Procedure and IACUC protocols. In short, compounds were formulated in 10% Tween 80 in water and dosed at 10 mg/kg. At different times, arterial blood was collected from a femoral artery catheter, and compound concentration was determined in plasma by LC-MS/MS following their non-GLP protocol. PK parameters were determined using Phoenix WinNonlin software (version 6.3). In-vitro determination of blood-brain barrier penetration potential Blood-brain barrier penetration was determined using MDR1-MDCK cell monolayers by Absorption Systems, following their protocol. In short, compounds were incubated at […] final concentration on one side of the cell monolayer for 2 hours. […] Animals were monitored continuously and scored for behavioral manifestations of seizure activity at 5, 15, 30 min, and 1 h. Behavioral manifestations of seizures were scored using a modified Racine scoring system. […]

A further data set has as its system Imidazoline I2, Central. The data set is described as follows: Eurofins radioligand binding. Details: species or system Rat.
In another data set the target is Neuropeptide Y Y1 (Homo sapiens, UniProt P25929). Nature of the data set: Eurofins radioligand binding.
A further data set has as its target Serotonin (5-HT2B) (Homo sapiens, UniProt P41595). The data set is described as follows: Eurofins radioligand binding.
A further data set deals with Sodium Channel, Site 2. Nature of the data set: Eurofins radioligand binding. Details: species or system Rat.
For data set [3], the system named is GABAA, Flunitrazepam, Central. Nature of the data set: Eurofins radioligand binding. On the set-up: species or system Rat.
The next data set has as its target Adenosine A2A (Homo sapiens, UniProt P29274). Nature of the data set: Eurofins radioligand binding.
The test system of data set [4] is 68 GPCRs, ion channels, and transporters. Nature of the data set: Eurofins lead profiling screen, whole panel. It counts as binding. To be noted: 10 μM; significant means >50%.
Another data set deals with Serotonin (5-HT3) (Homo sapiens, UniProt P46098). The data set is described as follows: Eurofins radioligand binding.
The target of the next data set is Adenosine A3 (Homo sapiens, UniProt P0DMS8). The data set is described as follows: Eurofins radioligand binding.
The next data set addresses Endothelin ETA (Homo sapiens, UniProt P25101). The data set is described as follows: Eurofins radioligand binding.
The target in the next data set is Dopamine D3 (Homo sapiens, UniProt P35462). The data set is described as follows: Eurofins radioligand binding.
Another data set has as its system Glutamate, Kainate. The data set is described as follows: Eurofins radioligand binding. Details: species or system Rat.
The next data set addresses Histamine H1 (Homo sapiens, UniProt P35367). The data set is described as follows: Eurofins radioligand binding.
Data set [5] has as its target Nicotinic Acetylcholine α1, Bungarotoxin (Homo sapiens, UniProt P02708+P07510+Q07001). The data set is described as follows: Eurofins radioligand binding. To be noted: read-out: % Inhibition at 10 µM.
Another data set deals with Opiate μ (OP3, MOP) (Homo sapiens, UniProt P35372). The data set is described as follows: Eurofins radioligand binding.
Data set [6] deals with fEPSPs in layer V medial prefrontal cortex (mPFC). Nature of the data set: Slice electrophysiology, long-term depression of fEPSPs. Details: species or system mouse. To be noted: 10 μM; layer V recording, stimulation in layer II/III; n = 9. The method, then:
While ago-PAMs induce substantial long-term depression that correlates with a lack of robust procognitive efficacy,[14],[16]−[21] […] Thus, PAM 5 maintains activity dependence of PFC function (Figure 3), and it is expected to display robust precognitive efficacy.
(A) Normalized time course of the fEPSP slope during baseline, application of 10 μM VU6045422 and washout. (B) Bar graph summarizing the averaged fEPSP slope during the last 5 min of washout (gray bar in panel (A)) compared to the baseline period (ns, p > 0.05, two-tailed paired t test, n = 9).

Another data set concerns the target Histamine H2 (Homo sapiens, UniProt P25021). Nature of the data set: Eurofins radioligand binding.
Data set [7] has as its system Calcium Channel L-Type, Benzothiazepine. Nature of the data set: Eurofins radioligand binding. On the set-up: species or system Rat.

Serotonin (5-HT2B), sequence (P41595 whole entry): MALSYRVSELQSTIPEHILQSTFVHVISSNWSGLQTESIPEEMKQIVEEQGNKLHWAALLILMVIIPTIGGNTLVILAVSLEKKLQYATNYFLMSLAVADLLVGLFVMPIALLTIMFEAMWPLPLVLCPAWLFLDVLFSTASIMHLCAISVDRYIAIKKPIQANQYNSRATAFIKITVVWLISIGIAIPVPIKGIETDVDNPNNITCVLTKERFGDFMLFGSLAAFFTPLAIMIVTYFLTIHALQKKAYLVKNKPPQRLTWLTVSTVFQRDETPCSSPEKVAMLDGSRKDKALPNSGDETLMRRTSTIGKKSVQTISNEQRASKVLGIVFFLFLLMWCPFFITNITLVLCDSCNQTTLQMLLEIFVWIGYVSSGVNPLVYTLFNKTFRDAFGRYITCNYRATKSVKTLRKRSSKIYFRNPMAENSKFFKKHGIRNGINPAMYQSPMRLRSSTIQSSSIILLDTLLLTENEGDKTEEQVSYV
Dopamine D3, sequence (P35462 whole entry): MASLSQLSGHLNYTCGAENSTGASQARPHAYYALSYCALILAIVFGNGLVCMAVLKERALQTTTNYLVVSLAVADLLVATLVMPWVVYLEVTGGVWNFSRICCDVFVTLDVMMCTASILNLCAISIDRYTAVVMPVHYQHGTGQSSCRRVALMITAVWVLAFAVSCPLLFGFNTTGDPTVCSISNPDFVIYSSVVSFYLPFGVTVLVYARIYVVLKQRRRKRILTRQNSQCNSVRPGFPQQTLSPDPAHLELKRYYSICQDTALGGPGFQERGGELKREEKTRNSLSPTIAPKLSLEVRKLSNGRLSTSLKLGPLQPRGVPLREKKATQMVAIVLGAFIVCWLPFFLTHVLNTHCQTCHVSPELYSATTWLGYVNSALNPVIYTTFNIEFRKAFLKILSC
Histamine H1, sequence (P35367 whole entry): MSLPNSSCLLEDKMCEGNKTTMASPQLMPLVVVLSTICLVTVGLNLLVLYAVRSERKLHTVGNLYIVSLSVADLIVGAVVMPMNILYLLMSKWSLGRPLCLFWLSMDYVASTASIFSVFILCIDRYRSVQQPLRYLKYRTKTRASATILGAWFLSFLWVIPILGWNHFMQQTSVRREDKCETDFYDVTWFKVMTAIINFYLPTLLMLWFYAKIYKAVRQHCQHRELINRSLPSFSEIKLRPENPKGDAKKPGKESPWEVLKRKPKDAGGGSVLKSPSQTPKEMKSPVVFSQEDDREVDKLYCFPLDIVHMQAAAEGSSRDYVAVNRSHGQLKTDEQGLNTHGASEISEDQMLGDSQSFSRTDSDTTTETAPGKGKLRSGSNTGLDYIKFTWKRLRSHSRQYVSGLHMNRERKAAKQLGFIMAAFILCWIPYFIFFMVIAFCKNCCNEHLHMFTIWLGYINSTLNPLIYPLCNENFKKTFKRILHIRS
Adenosine A2A, sequence (P29274 whole entry): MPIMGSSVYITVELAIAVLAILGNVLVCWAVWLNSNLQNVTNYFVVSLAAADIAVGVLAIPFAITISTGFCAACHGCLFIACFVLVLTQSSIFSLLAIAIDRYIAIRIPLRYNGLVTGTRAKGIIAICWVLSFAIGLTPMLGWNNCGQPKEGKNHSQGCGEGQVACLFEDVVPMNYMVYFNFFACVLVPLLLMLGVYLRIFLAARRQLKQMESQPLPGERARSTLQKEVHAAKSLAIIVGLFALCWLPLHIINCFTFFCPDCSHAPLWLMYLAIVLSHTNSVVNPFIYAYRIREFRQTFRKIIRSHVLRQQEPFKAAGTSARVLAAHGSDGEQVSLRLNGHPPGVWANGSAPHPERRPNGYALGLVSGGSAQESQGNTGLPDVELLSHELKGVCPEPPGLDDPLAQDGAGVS
Nicotinic Acetylcholine α1, Bungarotoxin, sequence (P11230 24-501): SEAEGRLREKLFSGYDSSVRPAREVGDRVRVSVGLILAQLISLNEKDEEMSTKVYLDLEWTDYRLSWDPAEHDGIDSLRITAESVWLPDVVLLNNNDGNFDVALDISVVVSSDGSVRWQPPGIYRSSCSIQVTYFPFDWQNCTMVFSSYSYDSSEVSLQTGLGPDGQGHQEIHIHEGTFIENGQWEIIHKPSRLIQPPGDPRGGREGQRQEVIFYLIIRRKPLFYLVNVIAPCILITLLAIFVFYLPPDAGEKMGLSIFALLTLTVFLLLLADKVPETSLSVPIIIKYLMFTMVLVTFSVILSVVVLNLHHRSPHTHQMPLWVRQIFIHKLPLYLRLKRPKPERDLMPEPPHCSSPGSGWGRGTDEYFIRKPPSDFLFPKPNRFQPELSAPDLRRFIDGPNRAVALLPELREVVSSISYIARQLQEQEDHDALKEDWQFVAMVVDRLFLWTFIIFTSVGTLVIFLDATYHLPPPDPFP
Nicotinic Acetylcholine α1, Bungarotoxin, sequence (Q07001 22-517): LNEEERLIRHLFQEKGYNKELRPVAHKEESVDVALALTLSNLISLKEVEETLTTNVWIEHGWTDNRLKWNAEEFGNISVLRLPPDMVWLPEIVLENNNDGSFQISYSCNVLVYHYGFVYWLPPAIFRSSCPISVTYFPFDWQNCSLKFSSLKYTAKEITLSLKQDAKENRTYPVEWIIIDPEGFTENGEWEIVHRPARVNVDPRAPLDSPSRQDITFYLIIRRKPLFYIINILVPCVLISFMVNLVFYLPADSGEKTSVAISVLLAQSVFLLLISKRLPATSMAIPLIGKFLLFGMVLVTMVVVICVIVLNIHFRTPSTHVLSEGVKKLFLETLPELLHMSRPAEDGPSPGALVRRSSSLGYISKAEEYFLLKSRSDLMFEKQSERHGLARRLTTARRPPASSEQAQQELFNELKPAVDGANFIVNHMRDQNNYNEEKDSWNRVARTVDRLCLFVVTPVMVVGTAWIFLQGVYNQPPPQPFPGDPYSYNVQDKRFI
Nicotinic Acetylcholine α1, Bungarotoxin, sequence (P02708 21-457): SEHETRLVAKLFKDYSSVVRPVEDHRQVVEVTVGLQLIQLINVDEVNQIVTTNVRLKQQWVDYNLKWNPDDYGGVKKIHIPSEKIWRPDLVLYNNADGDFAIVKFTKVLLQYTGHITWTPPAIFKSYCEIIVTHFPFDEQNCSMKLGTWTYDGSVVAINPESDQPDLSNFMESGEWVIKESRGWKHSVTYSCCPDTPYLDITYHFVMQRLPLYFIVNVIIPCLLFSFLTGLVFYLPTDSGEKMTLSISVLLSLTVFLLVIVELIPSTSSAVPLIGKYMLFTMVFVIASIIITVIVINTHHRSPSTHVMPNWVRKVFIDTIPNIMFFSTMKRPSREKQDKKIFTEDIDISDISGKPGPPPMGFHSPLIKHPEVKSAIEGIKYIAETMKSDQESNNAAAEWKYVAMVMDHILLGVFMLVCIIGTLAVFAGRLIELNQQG
Nicotinic Acetylcholine α1, Bungarotoxin, sequence (P07510 23-517): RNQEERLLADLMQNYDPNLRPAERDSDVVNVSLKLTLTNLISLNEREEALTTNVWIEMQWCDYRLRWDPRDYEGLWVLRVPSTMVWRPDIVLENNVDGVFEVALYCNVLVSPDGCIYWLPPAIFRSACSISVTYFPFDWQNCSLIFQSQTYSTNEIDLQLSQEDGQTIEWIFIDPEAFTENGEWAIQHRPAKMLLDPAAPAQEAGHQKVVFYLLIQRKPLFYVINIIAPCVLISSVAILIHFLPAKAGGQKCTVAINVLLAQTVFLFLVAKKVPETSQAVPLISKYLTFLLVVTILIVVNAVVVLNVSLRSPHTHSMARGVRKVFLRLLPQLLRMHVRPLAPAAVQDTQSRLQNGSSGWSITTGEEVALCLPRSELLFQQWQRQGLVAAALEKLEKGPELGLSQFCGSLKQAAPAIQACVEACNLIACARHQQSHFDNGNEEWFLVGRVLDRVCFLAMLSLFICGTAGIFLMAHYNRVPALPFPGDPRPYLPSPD
Endothelin ETA, sequence (P25101 21-427): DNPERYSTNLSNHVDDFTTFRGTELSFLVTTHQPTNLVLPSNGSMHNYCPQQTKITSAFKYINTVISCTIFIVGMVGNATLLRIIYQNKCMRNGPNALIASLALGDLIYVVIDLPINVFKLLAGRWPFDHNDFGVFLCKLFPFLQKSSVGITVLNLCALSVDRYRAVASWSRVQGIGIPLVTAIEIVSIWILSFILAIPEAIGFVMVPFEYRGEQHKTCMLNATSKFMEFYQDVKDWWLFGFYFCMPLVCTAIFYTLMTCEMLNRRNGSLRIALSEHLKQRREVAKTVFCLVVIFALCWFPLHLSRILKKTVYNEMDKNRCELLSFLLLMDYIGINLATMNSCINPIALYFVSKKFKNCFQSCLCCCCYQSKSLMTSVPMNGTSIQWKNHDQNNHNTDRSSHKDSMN
Adenosine A3, sequence (P0DMS8 whole entry): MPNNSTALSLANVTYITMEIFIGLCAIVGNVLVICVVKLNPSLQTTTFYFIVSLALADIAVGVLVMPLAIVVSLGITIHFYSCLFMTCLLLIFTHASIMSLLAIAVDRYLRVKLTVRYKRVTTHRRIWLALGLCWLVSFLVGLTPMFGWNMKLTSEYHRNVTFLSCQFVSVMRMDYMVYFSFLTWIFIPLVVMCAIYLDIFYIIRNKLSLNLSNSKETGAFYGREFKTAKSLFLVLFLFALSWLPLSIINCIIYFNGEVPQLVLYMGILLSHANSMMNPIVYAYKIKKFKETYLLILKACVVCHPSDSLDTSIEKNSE
Histamine H2, sequence (P25021 whole entry): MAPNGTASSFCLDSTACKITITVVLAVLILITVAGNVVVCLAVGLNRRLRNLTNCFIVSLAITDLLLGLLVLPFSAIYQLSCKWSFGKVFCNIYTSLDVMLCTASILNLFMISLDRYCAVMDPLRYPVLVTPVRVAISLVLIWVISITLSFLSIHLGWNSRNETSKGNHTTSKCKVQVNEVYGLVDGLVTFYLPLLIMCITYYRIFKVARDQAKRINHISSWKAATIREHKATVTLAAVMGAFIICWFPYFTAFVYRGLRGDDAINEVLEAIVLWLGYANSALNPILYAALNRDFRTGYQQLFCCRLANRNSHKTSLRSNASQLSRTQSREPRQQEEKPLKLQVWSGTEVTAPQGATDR

Consider `Cn1cc2c(-c3cc(F)c(CN4Cc5ncccc5C4=O)c(F)c3)cccc2n1` [compound 1], for which the “rat CLhep” value in data set [1] is 5.7 mL/min/kg.

Take `[2H]C1([2H])c2ncccc2C(=O)N1Cc1c(F)cc(-c2cccc3nn(C([2H])([2H])[2H])cc23)cc1F` [compound 5]: the AUC at 14 days in data set [2] (day 14, 300 mg/kg PO of 5) was 321 µg·h/mL; in data set [2] (day 14, 750 mg/kg PO of 5), 536 µg·h/mL. Besides, the Cmax at 14 days in data set [2] (day 14, 300 mg/kg PO of 5) is 22200 ng/mL; in data set [2] (day 14, 750 mg/kg PO of 5), 31300 ng/mL; in [2] (day 14, 1500 mg/kg PO of 5), 30700 ng/mL. The compound also had an AUC at 14 day in [2] (day 14, 1500 mg/kg PO of 5) of 518 µg·h/mL. In the data set with seizure activity, this compound gave a Racine score of 1. For the same compound, the “% Inhibition at 10 µM” value was found to be 59% in the data set with Imidazoline I2, Central; 14% in the data set on Sodium Channel, Site 2; 0% in [3]; 13% in the data set with Glutamate, Kainate; 15% in [7]. Besides, the inhibition at 10 µM on Neuropeptide Y Y1 is -13%; on Serotonin (5-HT2B), 10%; on Adenosine A2A, 7%; on Serotonin (5-HT3) it was -9%; at Adenosine A3, 12%; at Endothelin ETA, -4%. The inhibition at 10 µM on Dopamine D3 was -1%; on Histamine H1 it was 2%; in [5] it was 8%; at Opiate μ (OP3, MOP), 5%; at Histamine H2 it was 2%. For the same compound, the “activity in Eurofins lead profiling screen, whole panel” value in data set [4] is “no significant activity”. Besides, the “change in fEPSPs / long-term depression” value in data set [6] was “no significant changes; also recorded: did not induce a significant long-term depression”.
